Reference: EP0416746A2 (priority 1989, dated 1991)
Read-outs that look alike come from different tables or passages of the source.

Key:
Plasmopara viticola = type: in vivo
Venturia inaequalis = conditions: in vivo
Pellicularia sasakii = type: in vivo
Erysiphe graminis = type: in vivo; conditions: active = greater than 50% control of the disease at 125 ppm (w/v) or less; spray or stem base drench; barley powdery mildew
Pyricularia oryzae = type: in vivo; conditions: active = greater than 50% control of the disease at 125 ppm (w/v) or less; spray or stem base drench; rice blast
Phytophthora infestans = type: in vivo; conditions: active = greater than 50% control of the disease at 125 ppm (w/v) or less; spray or stem base drench; late tomato blight
Botrytis cinerea = type: in vivo; conditions: active = greater than 50% control of the disease at 125 ppm (w/v) or less; spray or stem base drench; grey mould of tomato

| Structure (SMILES) | PV (Plasmopara viticola; in vivo) | VI (Venturia inaequalis) | PS (Pellicularia sasakii; in vivo) | EG (Erysiphe graminis) | PV (Plasmopara viticola; active = greater than 50% control of the disease at 125 ppm (w/v) or less, spray or stem base drench, vine downy mildew) | PO (Pyricularia oryzae) | PI (Phytophthora infestans) | PS (Pellicularia sasakii; active = greater than 50% control of the disease at 125 ppm (w/v) or less, spray or stem base drench, rice sheath blight) | BC (Botrytis cinerea) |
| --- | --- | --- | --- | --- | --- | --- | --- | --- | --- |
| CO/N=C(/C(=O)OC)c1ccccc1CSC(=O)c1ccccc1 [Compound 12, methyl (E)-2-[2-(benzoylthiomethyl)phenyl]-(methoxyimino)acetate] | + (key: + = active) | + (key: + = active) |  |  |  |  |  |  |  |
| CO/C=C(/C(=O)OC)c1ccccc1CSC(C)=O [Compound 3, methyl (E)-2-[2-(acetylthiomethyl)phenyl]-3-methoxy-2-propenoate] |  | + (key: + = active) | + (key: + = active) |  |  |  |  |  |  |
| CO/C=C(/C(=O)OC)c1ccccc1CSC(=O)C(C)(C)C [Compound 2] |  |  |  | + (+ = active) | + (+ = active) | + (+ = active) | + (+ = active) | + (+ = active) | + (+ = active) |
| CO/C=C(/C(=O)OC)c1ccccc1CSC(=O)c1ccccc1 [Compound 1, methyl (E)-2-[2-(benzoylthiomethyl)phenyl]-3-methoxy-2-propenoate] | + (key: + = active) | + (key: + = active) |  |  |  |  | + (+ = active) |  |  |
